Measured values reported in ChEMBL document CHEMBL1151745, “Identification of potent, selective, and metabolically stable peptide antagonists to the calcitonin gene-related peptide (CGRP) receptor” (J Med Chem, 2008).
The source made the active and inactive calls. No cut-off for these calls is given here. Where a SMILES comes first, the peptide text is derived from it. [ ]: non-standard residue; d: D form. Tpi = O=C(O)[C@@H]1Cc2c([nH]c3ccccc23)CN1; hArg = N=C(N)NCCCC[C@H](N)C(=O)O; Cit = NC(=O)NCCC[C@H](N)C(=O)O

Target: Calcitonin gene-related peptide type 1 receptor (Homo sapiens) (UniProt Q16602)
Assay: Agonist activity at human CGRP1 receptor in human SK-N-MC cells

Sequence of Calcitonin gene-related peptide type 1 receptor (Homo sapiens) (Q16602 whole entry, looked up): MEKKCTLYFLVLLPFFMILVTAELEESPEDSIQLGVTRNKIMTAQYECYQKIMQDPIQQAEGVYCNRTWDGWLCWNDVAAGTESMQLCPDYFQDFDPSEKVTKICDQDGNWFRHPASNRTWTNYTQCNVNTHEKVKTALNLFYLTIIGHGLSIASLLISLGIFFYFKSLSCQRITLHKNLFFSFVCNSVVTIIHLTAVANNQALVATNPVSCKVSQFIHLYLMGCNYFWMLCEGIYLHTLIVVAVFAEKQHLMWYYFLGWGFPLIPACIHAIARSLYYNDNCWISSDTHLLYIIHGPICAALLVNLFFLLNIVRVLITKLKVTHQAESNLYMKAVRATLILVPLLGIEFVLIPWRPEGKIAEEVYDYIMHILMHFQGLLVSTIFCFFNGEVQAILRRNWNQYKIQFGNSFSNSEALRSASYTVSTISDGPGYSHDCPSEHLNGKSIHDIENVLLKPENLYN

Activity, inactive:
CC(=O)N[C@@H](Cc1c[nH]c2ccccc12)C(=O)N[C@H](C(=O)N[C@H](C(=O)N[C@@H](Cc1cnc[nH]1)C(=O)N[C@@H](CCCNC(N)=O)C(=O)N[C@@H](CC(C)C)C(=O)N[C@@H](C)C(=O)NCC(=O)N[C@@H](CC(C)C)C(=O)N[C@@H](CC(C)C)C(=O)N[C@@H](CO)C(=O)N[C@@H](CCCNC(N)=O)C(=O)N[C@@H](CO)C(=O)NCC(=O)NCC(=O)N[C@H](C(=O)N[C@H](C(=O)N[C@@H](CCCCNC(=N)N)C(=O)N[C@@H](CCCCN)C(=O)N[C@@H](CC(N)=O)C(=O)N[C@@H](Cc1ccc2ccccc2c1)C(=O)N[C@H](C(=O)N1CCC[C@H]1C(=O)N[C@H](C(=O)N[C@@H](CC(=O)O)C(=O)N[C@H](C(=O)NCC(=O)N1C2CCCCC2C[C@H]1C(=O)N[C@@H](Cc1ccccc1)C(=O)N[C@@H](C)C(=O)N[C@@H](Cc1ccc2ccccc2c1)C(N)=O)C(C)C)[C@@H](C)O)C(C)C)C(C)C)C(C)C)[C@@H](C)O)C(C)C (some centres not stated)
CC(=O)N[C@@H](Cc1c[nH]c2ccccc12)C(=O)N[C@H](C(=O)N[C@H](C(=O)N[C@@H](Cc1cnc[nH]1)C(=O)N[C@@H](CCCNC(N)=O)C(=O)N[C@@H](CC(C)C)C(=O)N[C@@H](C)C(=O)NCC(=O)N[C@@H](CC(C)C)C(=O)N[C@@H](CC(C)C)C(=O)N[C@@H](CO)C(=O)N[C@@H](CCCNC(N)=O)C(=O)N[C@@H](CO)C(=O)NCC(=O)NCC(=O)N[C@H](C(=O)N[C@H](C(=O)N[C@@H](CCCCNC(=N)N)C(=O)N[C@@H](CCCCN)C(=O)N[C@@H](CC(N)=O)C(=O)N[C@@H](Cc1ccccc1)C(=O)N[C@H](C(=O)N1CCC[C@H]1C(=O)N[C@H](C(=O)N[C@@H](CC(=O)O)C(=O)N[C@H](C(=O)NCC(=O)NC(C)(C)C(=O)N[C@@H](Cc1ccccc1)C(=O)N[C@@H](C)C(=O)N[C@@H](Cc1ccccc1)C(N)=O)C(C)C)[C@@H](C)O)C(C)C)C(C)C)C(C)C)[C@@H](C)O)C(C)C
CC(=O)N[C@@H](Cc1c[nH]c2ccccc12)C(=O)N[C@H](C(=O)N[C@H](C(=O)N[C@@H](Cc1cnc[nH]1)C(=O)N[C@@H](CCCNC(N)=O)C(=O)N[C@@H](CC(C)C)C(=O)N[C@@H](C)C(=O)NCC(=O)N[C@@H](CC(C)C)C(=O)N[C@@H](CC(C)C)C(=O)N[C@@H](CO)C(=O)N[C@@H](CCCNC(N)=O)C(=O)N[C@@H](CO)C(=O)NCC(=O)NCC(=O)N[C@H](C(=O)N[C@H](C(=O)N[C@@H](CCCCNC(=N)N)C(=O)N[C@@H](CCCCN)C(=O)N[C@@H](CC(N)=O)C(=O)N[C@@H](Cc1ccccc1)C(=O)N[C@H](C(=O)N1CCC[C@H]1C(=O)N[C@H](C(=O)N[C@@H](CC(=O)O)C(=O)N[C@H](C(=O)NCC(=O)N(C)CC(=O)N[C@@H](Cc1ccccc1)C(=O)N[C@@H](C)C(=O)N[C@@H](Cc1ccccc1)C(N)=O)C(C)C)[C@@H](C)O)C(C)C)C(C)C)C(C)C)[C@@H](C)O)C(C)C
CC(=O)N[C@@H](Cc1c[nH]c2ccccc12)C(=O)N[C@H](C(=O)N[C@H](C(=O)N[C@@H](Cc1cnc[nH]1)C(=O)N[C@@H](CCCNC(N)=O)C(=O)N[C@@H](CC(C)C)C(=O)N[C@@H](C)C(=O)NCC(=O)N[C@@H](CC(C)C)C(=O)N[C@@H](CC(C)C)C(=O)N[C@@H](CO)C(=O)N[C@@H](CCCNC(N)=O)C(=O)N[C@@H](CO)C(=O)NCC(=O)NCC(=O)N[C@H](C(=O)N[C@H](C(=O)N[C@@H](CCCCNC(=N)N)C(=O)N[C@@H](CCCCN)C(=O)N[C@@H](CC(N)=O)C(=O)N[C@@H](Cc1ccccc1)C(=O)N[C@H](C(=O)N1CCC[C@H]1C(=O)N[C@H](C(=O)N[C@@H](CC(=O)O)C(=O)N[C@H](C(=O)NCC(=O)N1CCC[C@@H]1C(=O)N[C@@H](Cc1ccc(-c2ccccc2)cc1)C(=O)N[C@@H](C)C(=O)N[C@@H](Cc1ccccc1)C(N)=O)C(C)C)[C@@H](C)O)C(C)C)C(C)C)C(C)C)[C@@H](C)O)C(C)C
CC(=O)N[C@H](C(=O)N[C@H](C(=O)N[C@@H](Cc1cnc[nH]1)C(=O)N[C@@H](CCCNC(=N)N)C(=O)N[C@@H](CC(C)C)C(=O)N[C@@H](C)C(=O)NCC(=O)N[C@@H](CC(C)C)C(=O)N[C@@H](CC(C)C)C(=O)N[C@@H](CO)C(=O)N[C@@H](CCCNC(=N)N)C(=O)N[C@@H](CO)C(=O)NCC(=O)NCC(=O)N[C@H](C(=O)N[C@H](C(=O)N[C@@H](CCCNC(=N)N)C(=O)N[C@@H](CCCCN)C(=O)N[C@@H](CC(N)=O)C(=O)N[C@@H](Cc1ccccc1)C(=O)N[C@H](C(=O)N1CCC[C@H]1C(=O)N[C@H](C(=O)N[C@@H](CC(=O)O)C(=O)N[C@H](C(=O)NCC(=O)N1CCC[C@H]1C(=O)N[C@@H](Cc1ccccc1)C(=O)N[C@@H](C)C(=O)N[C@@H](Cc1ccccc1)C(N)=O)C(C)C)[C@@H](C)O)C(C)C)C(C)C)C(C)C)[C@@H](C)O)C(C)C (Ac-VTHRLAGLLSRSGGVVRKNFVPTDVGPFAF-NH2)
CC(=O)N[C@@H](Cc1c[nH]c2ccccc12)C(=O)N[C@H](C(=O)N[C@H](C(=O)N[C@@H](Cc1cnc[nH]1)C(=O)N[C@@H](CCCNC(N)=O)C(=O)N[C@@H](CC(C)C)C(=O)N[C@@H](C)C(=O)NCC(=O)N[C@@H](CC(C)C)C(=O)N[C@@H](CC(C)C)C(=O)N[C@@H](CO)C(=O)N[C@@H](CCCNC(N)=O)C(=O)N[C@@H](CO)C(=O)NCC(=O)NCC(=O)N[C@H](C(=O)N[C@H](C(=O)N[C@@H](CCCCNC(=N)N)C(=O)N[C@@H](CCCCN)C(=O)N[C@@H](CC(N)=O)C(=O)N[C@@H](Cc1ccccc1)C(=O)N[C@H](C(=O)N1CCC[C@H]1C(=O)N[C@H](C(=O)N[C@@H](CC(=O)O)C(=O)N[C@H](C(=O)NCC(=O)N1CCC[C@H]1C(=O)N1Cc2[nH]c3ccccc3c2C[C@H]1C(=O)N[C@@H](C)C(=O)N[C@@H](Cc1ccccc1)C(N)=O)C(C)C)[C@@H](C)O)C(C)C)C(C)C)C(C)C)[C@@H](C)O)C(C)C (Ac-WVTH[Cit]LAGLLS[Cit]SGGVV[hArg]KNFVPTDVGP[Tpi]AF-NH2)
CC(=O)N[C@@H](Cc1c[nH]c2ccccc12)C(=O)N[C@H](C(=O)N[C@H](C(=O)N[C@@H](Cc1cnc[nH]1)C(=O)N[C@@H](CCCNC(=N)N)C(=O)N[C@@H](CC(C)C)C(=O)N[C@@H](C)C(=O)NCC(=O)N[C@@H](CC(C)C)C(=O)N[C@@H](CC(C)C)C(=O)N[C@@H](CO)C(=O)N[C@@H](CCCNC(N)=O)C(=O)N[C@@H](CO)C(=O)NCC(=O)NCC(=O)N[C@H](C(=O)N[C@H](C(=O)N[C@@H](CCCNC(=N)N)C(=O)N[C@@H](CCCCN)C(=O)N[C@@H](CC(N)=O)C(=O)N[C@@H](Cc1ccccc1)C(=O)N[C@H](C(=O)N1CCC[C@H]1C(=O)N[C@H](C(=O)N[C@@H](CC(=O)O)C(=O)N[C@H](C(=O)NCC(=O)N1CCC[C@H]1C(=O)N[C@@H](Cc1ccccc1)C(=O)N[C@@H](C)C(=O)N[C@@H](Cc1ccccc1)C(N)=O)C(C)C)[C@@H](C)O)C(C)C)C(C)C)C(C)C)[C@@H](C)O)C(C)C
